Test results from US5093342A, “Use of omeprazole as an antimicrobial agent” (priority 1989, dated 1992).
Values after ≈ are worked out from the molar mass of the structure shown.

System: Campylobacter pylori 8005
Test: in vitro antimicrobial activity, agar plate dilution method (MIC)
Type: cell-based
Conditions: Helicobacter pylori, 48 h, Brucella Agar containing 5% horse lysed blood, 37° C., 10% carbon dioxide gas, 2 days, inoculum 10^7 cells/ml, read-out: minimal inhibitory concentration (MIC)

MIC: 0.39 µg/mL (≈ 1.13 µM)
Structure (SMILES): COc1ccc2[nH]c([S+]([O-])Cc3ncc(C)c(OC)c3C)nc2c1 (stereo not shown) [omeprazole, 5-methoxy-2-[[(4-methoxy-3,5-dimethyl-2-pyridinyl)methyl]-sulfinyl]-1H-benzimidazole]
